According to patent US8614213B2 (Novartis AG, priority 2008, dated 2013):

Target: human recombinant CRF-1 receptor (Homo sapiens (Human), UniProt P34998)
Assay: CRF-1 receptor antagonism, HTRF cAMP assay in CHO cells in the presence of 1 nM CRF
Type: cell-based
Details: CHO cells expressing human recombinant CRF-1
Method: The CRF-1 or CRF-2a receptor antagonistic activity of the agents of the invention has been determined in vitro in the following assay:
Chinese hamster ovary (CHO) cells expressing either the human recombinant CRF-1 or CRF-2a receptors (Chen et al., Proc Natl Acad Sci USA 90, 8967-8971, 1993; Liaw et al., Endocrinology 137, 72-77, 1996) are propagated in Dulbecco's modified Eagle medium supplemented with 10% foetal calf serum, non-essential amino acids, 100 U/ml penicillin, 100 mg/l streptomycin and 1 g/l geneticin (G418). For cyclic AMP determinations the Homogeneous Time-Resolved Fluoresce (HTRF) cAMP dynamic 2 kit (Cisbio International, France) was used as per manufacturers' instructions. CHO cells, previously cryopreserved, were thawed, centrifuged for 7 mins at 1200 rpm and resuspended in serum free media, then pipetted out onto clear bottomed black tissue culture treated 384-well microtitre plates (Corning Inc, US) at 2,000 cells per well. Compounds of the invention, prepared in DMSO, and subsequently diluted 50 fold in assay buffer (1× Hanks balanced salt solution, 0.2% (w/v) bovine serum albumin, 1.7 mM isobutylmethylxanthine and 10 mM Hepes, pH7.4) are then added onto the cell containing plate where a further 2 fold dilution is performed and incubated for 15 min. Following incubation, buffer containing a 5 times final concentration of agonist is added to the plate and incubated for 30 min. Finally, d2 dye labelled cAMP and cryptate labeled anti-cAMP antibody, both made in lysis buffer, are added to the plate followed by a settling period of 1 hour. During the settling period cAMP produced by the cells competes with the d2 labelled cAMP for the anti-cAMP cryptate. The plate is read on the Pherastar (BMG, Germany). […] Values represented by a change in arbitrary fluorescence units are converted into cAMP concentrations by use of a standard curve the reagents for which are supplied with the kit. […] IC50 values of antagonists are calculated by fitting the percent inhibition of the effect of CRF by increasing concentrations of the antagonists. […]

Sequence of human recombinant CRF-1 receptor (P34998 24-415): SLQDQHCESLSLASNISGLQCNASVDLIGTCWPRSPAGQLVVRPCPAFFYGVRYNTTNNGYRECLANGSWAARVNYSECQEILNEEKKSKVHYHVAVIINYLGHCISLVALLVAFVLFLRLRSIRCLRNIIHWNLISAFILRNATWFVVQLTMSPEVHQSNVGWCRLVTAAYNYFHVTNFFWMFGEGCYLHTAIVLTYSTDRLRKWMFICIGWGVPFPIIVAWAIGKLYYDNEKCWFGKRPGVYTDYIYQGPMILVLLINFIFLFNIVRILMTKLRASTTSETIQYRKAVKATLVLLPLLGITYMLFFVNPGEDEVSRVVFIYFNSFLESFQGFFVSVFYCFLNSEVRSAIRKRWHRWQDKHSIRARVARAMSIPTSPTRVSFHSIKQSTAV

Row | Compound | IC50 [nM]
1 | 2-Chloro-N-(2RS-methyl-4-phenylaminomethyl-cyclohexyl)-5-trifluoromethyl-benzamide [Example 16] | 51
2 | Cc1cc(N2CCNC2=O)nn1C[C@H]1CC[C@H](NC(=O)c2cc(C(F)(F)F)ccc2Cl)CC1 [Example 21.5, 2-Chloro-N-{4-[5-methyl-3-(2-oxo-imi-dazolidin-1-yl)-pyrazol-1-ylmethyl]-cyclohexyl}-5-trifluoromethyl-ben zamide] | 157
3 | Cc1nn(C[C@H]2CC[C@H](NC(=O)c3cc(C(F)(F)F)ccc3Cl)CC2)c(C)c1C [Example 21.11] | 140
